Conditions: Liquid, Vibrating tube method

CCCCCCC(=O)OCC(COC(=O)CCCCCC)(COC(=O)CCCCCC)COC(=O)CCCCCC [pentaerythritol tetraheptanoate]
Conditions	mass density [kg/m3]
323.15 K, 32352 kPa	976
323.15 K, 32396 kPa	976
323.15 K, 32734 kPa	976.2
323.15 K, 32779 kPa	976.2
323.15 K, 32824 kPa	976.2
323.15 K, 32870 kPa	976.3
323.15 K, 32924 kPa	976.3
323.15 K, 32970 kPa	976.3
323.15 K, 33016 kPa	976.4
323.15 K, 33072 kPa	976.4
323.15 K, 33118 kPa	976.4
323.15 K, 33164 kPa	976.4
323.15 K, 33219 kPa	976.5
323.15 K, 33314 kPa	976.4
323.15 K, 33463 kPa	976.7
323.15 K, 33519 kPa	976.7
323.15 K, 33566 kPa	976.7
323.15 K, 33612 kPa	976.6
323.15 K, 33657 kPa	976.7
323.15 K, 33718 kPa	976.7
323.15 K, 33778 kPa	976.7
323.15 K, 33830 kPa	976.8
323.15 K, 33882 kPa	976.7
323.15 K, 33940 kPa	976.9
323.15 K, 33970 kPa	976.8
323.15 K, 34065 kPa	976.9
323.15 K, 34098 kPa	977
323.15 K, 34123 kPa	977
323.15 K, 34149 kPa	977.1
323.15 K, 34181 kPa	977
323.15 K, 34207 kPa	977.1
323.15 K, 34235 kPa	977.1
323.15 K, 34262 kPa	977.1
323.15 K, 34295 kPa	977
323.15 K, 34323 kPa	977.2
323.15 K, 34351 kPa	977.1
323.15 K, 34379 kPa	977.2
323.15 K, 34415 kPa	977.1
323.15 K, 34444 kPa	977.2
323.15 K, 34481 kPa	977.2
323.15 K, 34513 kPa	977.3
323.15 K, 34545 kPa	977.2
323.15 K, 34570 kPa	977.3
323.15 K, 34571 kPa	977.2
323.15 K, 34574 kPa	977.2
323.15 K, 34576 kPa	977.3
323.15 K, 34578 kPa	977.2
323.15 K, 34581 kPa	977.3
323.15 K, 34584 kPa	977.2
323.15 K, 34586 kPa	977.3
323.15 K, 34589 kPa	977.3
323.15 K, 34593 kPa	977.2
323.15 K, 34596 kPa	977.3
323.15 K, 34600 kPa	977.3
323.15 K, 34605 kPa	977.3
323.15 K, 34611 kPa	977.3
323.15 K, 34616 kPa	977.2
343.13 K, 13322 kPa	950.4
343.13 K, 13336 kPa	950.3
343.13 K, 13347 kPa	950.4
343.13 K, 13362 kPa	950.3
343.13 K, 13471 kPa	950.5
343.13 K, 13485 kPa	950.5
343.14 K, 13145 kPa	950
343.14 K, 13156 kPa	950.2
343.14 K, 13167 kPa	950.1
343.14 K, 13180 kPa	950.2
343.14 K, 13192 kPa	950.3
343.14 K, 13203 kPa	950.3
343.14 K, 13216 kPa	950.2
343.14 K, 13227 kPa	950.2
343.14 K, 13238 kPa	950.2
343.14 K, 13252 kPa	950.1
343.14 K, 13263 kPa	950.3
343.14 K, 13274 kPa	950.4
343.14 K, 13286 kPa	950.4
343.14 K, 13300 kPa	950.3
343.14 K, 13311 kPa	950.2
343.14 K, 13373 kPa	950.2
343.14 K, 13384 kPa	950.4
343.14 K, 13399 kPa	950.4
343.14 K, 13410 kPa	950.5
343.14 K, 13420 kPa	950.4
343.14 K, 13431 kPa	950.5
343.14 K, 13448 kPa	950.3
343.14 K, 13460 kPa	950.4
343.14 K, 13497 kPa	950.4
343.14 K, 13509 kPa	950.4
343.14 K, 13521 kPa	950.4
343.14 K, 13535 kPa	950.5
343.14 K, 13547 kPa	950.5
343.14 K, 13560 kPa	950.6
343.14 K, 13574 kPa	950.5
343.14 K, 13586 kPa	950.6
343.14 K, 13598 kPa	950.5
343.14 K, 13610 kPa	950.6
343.14 K, 13622 kPa	950.6
343.14 K, 13636 kPa	950.6
343.14 K, 13648 kPa	950.7
343.14 K, 13870 kPa	950.7
343.14 K, 13883 kPa	950.7
343.14 K, 13898 kPa	950.7
343.14 K, 13911 kPa	950.8
343.14 K, 13926 kPa	950.7
343.14 K, 13938 kPa	950.8
343.14 K, 13951 kPa	950.8
343.14 K, 13964 kPa	950.8
343.14 K, 13977 kPa	950.7
343.14 K, 13992 kPa	950.8
343.14 K, 14004 kPa	950.8
343.14 K, 14018 kPa	950.8
